# Source: patent US11014904B2, “1,2,4-triazine-3-amine derivative, preparation method therefor, and use thereof in medicine” (Jiangsu Hengrui Medicine Co., Ltd., priority 2017, dated 2021)
# What was measured:
# Assay type in all cases: cell-based
# [1] = target: T1, adenosine A2a receptor (A2aR) (Homo sapiens, UniProt P29274); assay: Inhibition of the adenosine A2a receptor cAMP signaling pathway in CHO-K1/A2aR cells (HTRF); details: CHO-K1/A2aR cells, cAMP, NECA 20 nM; Table 1
# T1 construct: expressed in transfected cells; host or cells: CHO-K1
# T1 sequence (P29274 whole entry): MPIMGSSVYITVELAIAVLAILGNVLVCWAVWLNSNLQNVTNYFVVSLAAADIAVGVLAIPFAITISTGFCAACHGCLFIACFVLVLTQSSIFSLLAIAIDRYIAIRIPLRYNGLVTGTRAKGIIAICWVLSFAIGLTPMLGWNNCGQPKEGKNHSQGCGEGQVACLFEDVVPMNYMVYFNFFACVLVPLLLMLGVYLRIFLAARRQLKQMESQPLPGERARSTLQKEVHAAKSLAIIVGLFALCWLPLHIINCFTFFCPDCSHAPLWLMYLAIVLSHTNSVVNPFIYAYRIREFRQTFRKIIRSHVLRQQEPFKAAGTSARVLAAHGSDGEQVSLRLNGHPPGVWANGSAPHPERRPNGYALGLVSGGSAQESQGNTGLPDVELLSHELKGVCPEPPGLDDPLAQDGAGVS
# Description: (§1) Determination of the inhibition activity of the compounds of the present invention on the adenosine A2a receptor (A2aR) cAMP signaling pathway, the adenosine A2b receptor (A2bR) cAMP signaling pathway, the adenosine A1 receptor (A1R) cAMP signaling pathway and the adenosine A3 receptor (A3R) cAMP signaling pathway.
# (§2) The inhibition activity of the compounds of the present invention on the adenosine A2a receptor (A2aR) cAMP signaling pathway, the adenosine A2b receptor cAMP signaling pathway, the adenosine A1 receptor cAMP signaling pathway and the adenosine A3 receptor cAMP signaling pathway was determined by the following method. The experimental method is briefly described as follows:
# 2.1 Adenosine A2a receptor
# CHO-K1/A2aR cells were cultured in DMEM/F12 medium containing 10% fetal bovine serum and 800 μg/ml bleomycin. The cells were digested with the cell separation buffer during the experiment. The cells were resuspended in the balanced salt buffer containing 20 mM HEPES and 0.1% bovine serum albumin and counted, and the cell density was adjusted to 10^6 cells/ml. In the 384-well plate, each well was added with 5 μl of cell suspension, and 2.5 μl of test compound (4× concentration) formulated with the balanced salt buffer containing 20 mM HEPES, 0.1% bovine serum albumin, 54 μM rolipram and 2.7 U/ml adenosine deaminase, and the plate was incubated at room temperature for 30 minutes. Each well was then added with 2.5 μl of […] (4× concentration) formulated with the balanced salt buffer containing 20 mM HEPES, 0.1% bovine serum albumin, 54 μM rolipram and 2.7 U/ml adenosine deaminase, and the plate was incubated at room temperature for 30 minutes. The final concentrations of the compounds were: 10000, 2000, 400, 80, 16, 3.2, 0.64, 0.128, 0.0256, 0.00512, and 0.001024 nM. The final concentration of […] was 20 nM. Intracellular cAMP concentration was detected with the cAMP dynamic 2 kit. cAMP-d2 and Anti-cAMP-Eu-Cryptate were diluted respectively with the cAMP lysis buffer at a ratio of 1:4. Each well was added with 5 μl of diluted cAMP-d2, followed by addition of 5 μl of diluted Anti-cAMP-Eu-Cryptate, and the plate was incubated at room temperature in the dark for 1 hour. The HTRF signal values were read by the PHERAstar multi-function microplate reader.
# [2] = target: T2, adenosine A3 receptor (A3R) (Homo sapiens, UniProt P0DMS8); assay: Inhibition of the adenosine A3 receptor cAMP signaling pathway in CHO-K1/A3R cells (HTRF); details: for IC50: CHO-K1/A3R cells, cAMP, forskolin 10 μM, 2Cl-IB-MECA 5 nM; for IC50 ratio (A3R/A2aR): selectivity A3R over A2aR
# T2 construct: expressed in transfected cells; host or cells: CHO-K1
# T2 sequence (P0DMS8 1-318): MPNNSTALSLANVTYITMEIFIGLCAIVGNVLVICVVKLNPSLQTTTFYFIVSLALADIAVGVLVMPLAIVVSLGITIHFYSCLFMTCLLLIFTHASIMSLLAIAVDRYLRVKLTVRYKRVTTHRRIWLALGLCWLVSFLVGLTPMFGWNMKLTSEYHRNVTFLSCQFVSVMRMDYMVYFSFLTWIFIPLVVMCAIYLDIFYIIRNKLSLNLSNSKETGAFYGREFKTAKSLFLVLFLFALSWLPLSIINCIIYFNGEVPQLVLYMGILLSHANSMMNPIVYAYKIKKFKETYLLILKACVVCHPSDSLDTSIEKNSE
# Description: as §1, §2
# 2.4 Adenosine A3 Receptor
# CHO-K1/A3R cells were cultured in DMEM/F12 medium containing 10% fetal bovine serum and 10 μg/ml puromycin. The cells were digested with the cell separation buffer during the experiment. The cells were resuspended in the balanced salt buffer containing 20 mM HEPES and 0.1% bovine serum albumin and counted, and the cell density was adjusted to 5×10^5 cells/ml. In the 384-well plate, each well was added with 12.5 μl of cell suspension, and 6.25 μl of test compound (4× concentration) formulated with the balanced salt buffer containing 20 mM HEPES, 0.1% bovine serum albumin, 54 μM rolipram and 2.7 U/ml adenosine deaminase, and the plate was incubated at room temperature for 30 minutes. Each well was then added with 6.25 μl of forskolin and 2Cl-IB-MECA (4× concentration) formulated with the balanced salt buffer containing 20 mM HEPES, 0.1% bovine serum albumin, 54 μM rolipram and 2.7 U/ml adenosine deaminase, and the plate was incubated at room temperature for 30 minutes. The final concentrations of the compounds were: 100000, 10000, 1000, 100, 10, 1, 0.1 and 0 nM. The final concentrations of forskolin was 10 μM. The final concentration of 2Cl-IB-MECA was 5 nM. Intracellular cAMP concentration was detected with the cAMP dynamic 2 kit. cAMP-d2 and Anti-cAMP-Eu-Cryptate were diluted respectively with the cAMP lysis buffer at a ratio of 1:4. Each well was added with 12.5 μl of diluted cAMP-d2, followed by addition of 12.5 μl of diluted Anti-cAMP-Eu-Cryptate, and the plate was incubated at room temperature in the dark for 1 hour. The HTRF signal values were read by the PHERAstar multi-function microplate reader.
# [3] = target: T3, adenosine A1 receptor (A1R) (Homo sapiens, UniProt P30542); assay: Inhibition of the adenosine A1 receptor cAMP signaling pathway in CHO-K1/A1R cells (HTRF); details: for IC50: CHO-K1/A1R cells, cAMP, forskolin 10 μM, CPA 10 nM; for IC50 ratio (A1R/A2aR): selectivity A1R over A2aR
# T3 construct: expressed in transfected cells; host or cells: CHO-K1
# T3 sequence (P30542 1-326): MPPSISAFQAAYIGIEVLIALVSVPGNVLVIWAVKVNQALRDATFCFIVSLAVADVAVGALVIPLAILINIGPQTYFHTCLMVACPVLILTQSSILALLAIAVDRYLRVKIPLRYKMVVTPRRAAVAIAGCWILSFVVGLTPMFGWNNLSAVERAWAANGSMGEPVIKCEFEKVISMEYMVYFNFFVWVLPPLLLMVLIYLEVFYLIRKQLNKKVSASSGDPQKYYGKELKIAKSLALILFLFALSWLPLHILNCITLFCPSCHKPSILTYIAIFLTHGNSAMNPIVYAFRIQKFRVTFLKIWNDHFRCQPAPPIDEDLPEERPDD
# Description: as §1, §2
# 2.3 Adenosine A1 Receptor
# CHO-K1/A1R cells were cultured in DMEM/F12 medium containing 10% fetal bovine serum and 1 mg/ml G418. The cells were digested with the cell separation buffer during the experiment. The cells were then resuspended in the balanced salt buffer containing 20 mM HEPES and 0.1% bovine serum albumin and counted, and the cell density was adjusted to 5×10^5 cells/ml. In the 384-well plate, each well was added with 12.5 μl of cell suspension, and 6.25 μl of test compound (4× concentration) formulated with the balanced salt buffer containing 20 mM HEPES, 0.1% bovine serum albumin, 54 μM rolipram and 2.7 U/ml adenosine deaminase, and the plate was incubated at room temperature for 30 minutes. Each well was then added with 6.25 μl of forskolin and N6-cyclopentyladenosine (4× concentration) formulated with the balanced salt buffer containing 20 mM HEPES, 0.1% bovine serum albumin, 54 μM rolipram and 2.7 U/ml adenosine deaminase, and the plate was incubated at room temperature for 30 minutes. The final concentrations of the compounds were: 100000, 10000, 1000, 100, 10, 1, 0.1 and 0 nM. The final concentrations of forskolin was 10 μM. The final concentrations of CPA was 10 nM. Intracellular cAMP concentration was detected with the cAMP dynamic 2 kit. cAMP-d2 and Anti-cAMP-Eu-Cryptate were diluted respectively with the cAMP lysis buffer at a ratio of 1:4. Each well was added with 12.5 μl of diluted cAMP-d2, followed by addition of 12.5 μl of diluted Anti-cAMP-Eu-Cryptate, and the plate was incubated at room temperature in the dark for 1 hour. The HTRF signal values were read by the PHERAstar multi-function microplate reader.
IC50 [1] [nM],IC50 [2] [nM],IC50 ratio (A3R/A2aR) [2],IC50 [3] [nM],IC50 ratio (A1R/A2aR) [3],SMILES
3.7,–,–,–,–,"Nc1nnc(-c2ccc3ncccc3c2)c(-c2ccc(F)cc2)n1 [Example 30, 5-(4-Fluorophenyl)-6-(quinolin-6-yl)-1,2,4-triazin-3-amine]"
0.9,–,–,–,–,"Nc1nnc(-c2ccc3ncc(F)cc3c2)c(-c2ccccc2)n1 [Example 24, 6-(3-Fluoroquinolin-6-yl)-5-phenyl-1,2,4-triazin-3-amine]"
2.5,–,–,–,–,"Nc1nnc(-c2ccc3nccc(C4CC4)c3c2)c(-c2ccc(F)cc2)n1 [Example 49, 6-(4-Cyclopropylquinolin-6-yl)-5-(4-fluorophenyl)-1,2,4-triazin-3-amine]"
3.6,–,–,–,–,"Cc1cc(-c2nnc(N)nc2-c2ccc(F)cc2)cc2cccnc12 [Example 8, 5-(4-Fluorophenyl)-6-(8-methylquinolin-6-yl)-1,2,4-triazin-3-amine]"
3.5,–,–,–,–,"Nc1nnc(-c2ccc3ncncc3c2)c(-c2ccccc2)n1 [Example 29, 5-Phenyl-6-(quinazolin-6-yl)-1,2,4-triazin-3-amine]"

# Further lines, the molecule ahead of its results:
SMILES,IC50 [1] [nM],IC50 [2] [nM],IC50 ratio (A3R/A2aR) [2],IC50 [3] [nM],IC50 ratio (A1R/A2aR) [3]
"Cc1cc(-c2nnc(N)nc2-c2ccco2)cc2cccnc12 [Example 6, 5-(Furan-2-yl)-6-(8-methylquinolin-6-yl)-1,2,4-triazin-3-amine]",1.3,–,–,–,–
"Cc1ncnc2c(F)cc(-c3nnc(N)nc3-c3ccc(F)cc3)cc12 [Example 50, 6-(8-Fluoro-4-methylquinazolin-6-yl)-5-(4-fluorophenyl)-1,2,4-triazin-3-amine]",3.2,> 10000,>10^3,3260,1018
"Nc1nnc(-c2ccc3nccc(Cl)c3c2)c(-c2ccc(F)cc2)n1 [Example 27, 6-(4-Chloroquinolin-6-yl)-5-(4-fluorophenyl)-1,2,4-triazin-3-amine]",2.2,–,–,–,–
"Nc1nnc(-c2ccc3ccccc3c2)c(-c2ccccc2)n1 [Example 13, 6-(Naphthalen-2-yl)-5-phenyl-1,2,4-triazin-3-amine, reference compound]",158,–,–,–,–
"Nc1nnc(-c2ccc3nccc(C(F)F)c3c2)c(-c2ccc(F)cc2)n1 [Example 51, 6-(4-(Difluoromethyl)quinolin-6-yl)-5-(4-fluorophenyl)-1,2,4-triazin-3-amine]",3.5,–,–,–,–
"Cc1cc(-c2nc(N)nnc2-c2ccc3nccc(C)c3c2)ccn1 [Example 48, 5-(2-Methylpyridin-4-yl)-6-(4-methylquinolin-6-yl)-1,2,4-triazin-3-amine]",2.4,> 10000,>10^3,3280,1365
"Cc1cc(-c2nnc(N)nc2-c2ccccc2)cc2cccnc12 [Example 1, 6-(8-Methylquinolin-6-yl)-5-phenyl-1,2,4-triazin-3-amine]",0.5,> 10000,>10^4,121,242
"Cc1cnc2ccc(-c3nnc(N)nc3-c3ccccc3)cc2c1 [Example 28, 6-(3-Methylquinolin-6-yl)-5-phenyl-1,2,4-triazin-3-amine]",3,–,–,–,–
"Nc1nnc(-c2cc(F)c3ncccc3c2)c(-c2cccc(F)c2)n1 [Example 26, 5-(3-Fluorophenyl)-6-(8-fluoroquinolin-6-yl)-1,2,4-triazin-3-amine]",1.8,–,–,–,–
"CCc1ccnc2c(F)cc(-c3nnc(N)nc3-c3ccccc3)cc12 [Example 47, 6-(4-Ethyl-8-fluoroquinolin-6-yl)-5-phenyl-1,2,4-triazin-3-amine]",1.6,–,–,–,–
"Cc1cc(-c2nnc(N)nc2-c2cccs2)cc2cccnc12 [Example 7, 6-(8-Methylquinolin-6-yl)-5-(thiophen-2-yl)-1,2,4-triazin-3-amine]",3.1,–,–,–,–
